Results on eight compounds are retold here after the supplement of paper PMC11061612.

Holding throughout (assay): Bliss excess, mean over the matrix (fraction); higher = more synergy
Assay [1] relates to EBC-1 (Squamous Cell Lung Carcinoma). The method, boiled down: (§1)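 Cell lines in DMEM/F12 or RPMI with 10% FBS were plated in 1536-well plates, held 24 hours at 37°C, 5% CO2, then given two-drug dose matrices for 72 hours (DMSO typically 0.2%). Viability was read by CellTiter-Glo 2.0 luminescence and scaled as inhibition from 0 (vehicle wells) to 1 (blank wells). Combination Emax is the second-highest inhibition in the matrix; Bliss excess is observed combination effect minus expected EA + EB − EA·EB, EA and EB being single-agent effects.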

Assay [2] deals with EMC-BAC-2 (Non-Small Cell Lung Carcinoma). The method, boiled down:
as §1

Assay [3] relates to EW-13 (Ewing's Sarcoma). Summed up:
as §1

Assay [4] relates to GOTO (Neuroblastoma). The method, boiled down: as §1
In assay [5] the test system is HuP-T3 (Pancreatic Carcinoma). The method, boiled down: as §1
In assay [6] the test system is KINGS-1 (Low Grade Glioma). The method, boiled down: as §1
For assay [7], the system named is KLE (Endometrial Carcinoma). Summed up:
as §1

Assay [8] has as its system KU-19-19 (Bladder Carcinoma). Summed up:
as §1

The subject of assay [9] is KYSE-150 (Esophageal Squamous Cell Carcinoma). Summed up: as §1
Assay [10] concerns KYSE-50 (Esophageal Squamous Cell Carcinoma). Summed up: as §1
Assay [11] has as its system NCI-H2347 (Lung Adenocarcinoma). Summed up: as §1
Assay [12] has as its system NH-12 (Neuroblastoma). Summed up:
as §1

Assay [13] deals with OVISE (Ovarian Carcinoma). Summed up:
as §1

Assay [14] deals with SCC-3 (B-Cell Non-Hodgkin's Lymphoma). The method, boiled down:
as §1

On to `COc1cccc(OCCCN)c1-c1cc(Nc2cnc(C#N)cn2)n[nH]1` [Prexasertib] + CCc1c2c(nc3ccc(O)cc13)-c1cc3c(c(=O)n1C2)COC(=O)[C@]3(O)CC [SN-38] (first compound max 1 µM, 7x7, partner max 0.3 µM), for which the Bliss excess is -0.0694 in assay [1]; -0.0767 in [2]; -0.0697 in assay [3]; -0.058 in [4]; 0.0335 in assay [5]; 0.0121 in assay [6]. The Bliss excess in [7] is 0.0285; in assay [8], 0.0024; in [9] it was 0.135; in assay [10], 0.0461; in [11], 0.0217; in [12], -0.078. The Bliss excess was -0.136 in assay [13] and 0.0056 in assay [14].

`CN(CCO)CC[C@H](CSc1ccccc1)Nc1ccc(S(=O)(=O)NC(=O)c2ccc(N3CCC([C@@H](O)c4ccccc4-c4ccc(Cl)cc4)CC3)cc2)cc1S(=O)(=O)C(F)(F)F` [AZD4320] + C[C@@H]1COCCN1C2=NC(=NC(=C2)C3(CC3)[S@](=N)(=O)C)C4=C5C=CNC5=NC=C4 [AZD6738] (first compound max 1 µM, 7x7, partner max 10 µM): the Bliss excess in [1] is -0.015; in [2], -0.0695; in assay [3], -0.0009; in [4], -0.0126; in assay [5], -0.0695; in assay [6], -0.0806. In addition, the Bliss excess in assay [7] was -0.0709; in assay [8], -0.0381; in assay [9], -0.0536; in assay [10] it was -0.0537; in assay [11] it was -0.0256; in assay [12], -0.0795. Further, the values for the Bliss excess in assay [13] and in assay [14] were -0.0206 and 0.014, respectively.

Take `NC1(C(=O)N[C@@H](CCO)c2ccc(Cl)cc2)CCN(c2ncnc3[nH]ccc23)CC1` [Capivasertib] + CCN(CCO)CCCOc1ccc2c(Nc3cc(CC(=O)Nc4cccc(F)c4)[nH]n3)ncnc2c1 [AZD2811] (first compound max 10 µM, 7x7, partner max 1 µM): the Bliss excess in assay [1] was 0.0429; in assay [2], -0.0124; in assay [3] it was 0.007; in [4] it was 0.0047; in [5], -0.0317; in assay [6] it was -0.0012. The Bliss excess in assay [7] was -0.0611; in assay [8], 0.0011; in [9], -0.011; in [10] it was 0.0278; in [11], -0.0369; in assay [12], -0.0439. The Bliss excess in [13] came to 0.0015; in assay [14] it was 0.0443.

For `COc1cccc2c1C(=O)c1c(O)c3c(c(O)c1C2=O)C[C@@](O)(C(=O)CO)C[C@@H]3O[C@H]1C[C@H](N)[C@H](O)[C@H](C)O1` [Doxorubicin] + Cc1cc2ncnn2cc1Nc1ncc2c(n1)n(C1CCOCC1)c(=O)n2C [AZD7648] (first compound max 1 µM, 7x7, partner max 10 µM), the Bliss excess in [1] was 0.0275; in assay [2], 0.0828; in assay [3], 0.0376; in assay [4], 0.0644; in assay [5] it was 0.0022; in assay [6], 0.0173. The Bliss excess in [7] is -0.002; in assay [8], 0.0843; in [9], 0.0648; in [10], 0.0331; in assay [11], -0.0486; in [12], 0.0953. Besides, the Bliss excess is 0.0341 in assay [13] and 0.158 in [14].

Regarding `Cc1nc(Nc2ncc(C(=O)Nc3c(C)cccc3Cl)s2)cc(N2CCN(CCO)CC2)n1` [Dasatinib] + CC(=O)Nc1cccc(-n2c(=O)n(C3CC3)c(=O)c3c(Nc4ccc(I)cc4F)n(C)c(=O)c(C)c32)c1 [Trametinib] (first compound max 2 µM, 7x7, partner max 1 µM), the Bliss excess in [1] is 0.0399; in [2], -0.0795; in assay [3] it was -0.0443; in [4], -0.0631; in [5], 0.0459; in assay [6], -0.0416. Also, the Bliss excess in assay [7] is -0.0052; in [8], 0.0906; in assay [9], -0.035; in assay [10], 0.043; in [11], 0.153; in assay [12], -0.0102. Moreover, the Bliss excess was 0.0504 in assay [13] and -0.0403 in assay [14].

Turning to `NC1(C(=O)N[C@@H](CCO)c2ccc(Cl)cc2)CCN(c2ncnc3[nH]ccc23)CC1` [Capivasertib] + C[C@@H]1COCCN1C2=NC(=NC(=C2)C3(CC3)[S@](=N)(=O)C)C4=C5C=CNC5=NC=C4 [AZD6738] (first compound max 10 µM, 7x7, partner max 10 µM), the Bliss excess in assay [1] was -0.0315; in [2] it was 0.0152; in assay [3], 0.0091; in [4] it was -0.0379; in [5] it was -0.036; in assay [6] it was -0.0197. The Bliss excess was -0.0692 in assay [7]; -0.0748 in assay [8]; -0.0545 in assay [9]; -0.0673 in assay [10]; -0.0218 in assay [11]; -0.0643 in assay [12]. The Bliss excess in assay [13] was -0.0459; in assay [14], -0.0037.

As to `COc1cccc(OCCCN)c1-c1cc(Nc2cnc(C#N)cn2)n[nH]1` [Prexasertib] + Cc1cc2ncnn2cc1Nc1ncc2c(n1)n(C1CCOCC1)c(=O)n2C [AZD7648] (first compound max 1 µM, 7x7, partner max 10 µM), the Bliss excess was -0.0054 in assay [1]; -0.019 in assay [2]; -0.015 in assay [3]; -0.0243 in assay [4]; 0.016 in assay [5]; -0.0464 in assay [6]. Also, the Bliss excess in assay [7] was 0.0213; in assay [8], -0.0038; in [9] it was -0.0312; in assay [10], -0.0296; in [11], -0.0552; in [12], -0.0133. Moreover, the Bliss excess in assay [13] is -0.0333; in [14], -0.0082.

With `CC1(C)CCC(CN2CCN(c3ccc(C(=O)NS(=O)(=O)c4ccc(NCC5CCOCC5)c([N+](=O)[O-])c4)c(Oc4cnc5[nH]ccc5c4)c3)CC2)=C(c2ccc(Cl)cc2)C1` [Venetoclax] + CCN(CCO)CCCOc1ccc2c(Nc3cc(CC(=O)Nc4cccc(F)c4)[nH]n3)ncnc2c1 [AZD2811] (first compound max 1 µM, 7x7, partner max 1 µM), the Bliss excess in assay [1] is 0.0178; in assay [2], -0.0038; in assay [3], -0.0499; in [4], 0.0162; in [5] it was -0.0309; in assay [6], -0.0652. In addition, the Bliss excess in assay [7] is -0.0629; in assay [8], -0.059; in assay [9], 0.0115; in assay [10], 0.0025; in [11], -0.053; in assay [12], 0.0685. The Bliss excess in assay [13] stood at 0.0134; in [14], 0.0418.
